We go through two compounds from ChEMBL document CHEMBL1817560, “Selectivity of kinase inhibitor fragments” (J Med Chem, 2011).

Experiment [1] addresses Aurora kinase B (Homo sapiens) (UniProt Q96GD4). The experiment is described as follows: Inhibition of AurB expressed in Escherichia coli or baculovirus-infected insect cells at 400 uM by IMAP assay.
In experiment [2] the target is T1, Aurora kinase A (Homo sapiens) (UniProt O14965).
T1 sequence (whole entry): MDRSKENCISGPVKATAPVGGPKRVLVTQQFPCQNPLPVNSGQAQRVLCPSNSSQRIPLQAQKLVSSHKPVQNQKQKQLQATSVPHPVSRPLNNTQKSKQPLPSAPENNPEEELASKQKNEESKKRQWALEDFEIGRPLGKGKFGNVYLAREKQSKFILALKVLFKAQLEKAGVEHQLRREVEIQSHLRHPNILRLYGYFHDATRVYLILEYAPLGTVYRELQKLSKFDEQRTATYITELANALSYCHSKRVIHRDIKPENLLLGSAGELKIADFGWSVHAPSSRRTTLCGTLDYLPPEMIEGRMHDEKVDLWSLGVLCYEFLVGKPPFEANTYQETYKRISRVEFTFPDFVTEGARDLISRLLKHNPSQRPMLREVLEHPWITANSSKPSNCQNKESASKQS
The experiment is described as follows: Inhibition of AurA expressed in Escherichia coli or baculovirus-infected insect cells at 400 uM by IMAP assay.

The target in experiment [3] is Epidermal growth factor receptor (Homo sapiens) (UniProt P00533). The experiment is described as follows: Inhibition of EGFR expressed in Escherichia coli or baculovirus-infected insect cells at 400 uM by TR-FRET assay.
Experiment [4] has as its target RAC-alpha serine/threonine-protein kinase (Homo sapiens, UniProt P31749). The experiment is described as follows: Inhibition of AKT1 expressed in Escherichia coli or baculovirus-infected insect cells by scintillation proximity assay.
In experiment [5] the target is Receptor tyrosine-protein kinase erbB-2 (Homo sapiens) (UniProt P04626). The experiment is described as follows: Inhibition of ErbB2 expressed in Escherichia coli or baculovirus-infected insect cells at 400 uM by TR-FRET assay.
Experiment [6] concerns the target Mitogen-activated protein kinase 8 (Homo sapiens, UniProt P45983). The experiment is described as follows: Inhibition of JNK1 expressed in Escherichia coli or baculovirus-infected insect cells at 667 uM by TR-FRET assay.
Experiment [7] deals with T2, Phosphatidylinositol 4,5-bisphosphate 3-kinase catalytic subunit delta isoform (Homo sapiens) (UniProt O00329).
T2 sequence (whole entry): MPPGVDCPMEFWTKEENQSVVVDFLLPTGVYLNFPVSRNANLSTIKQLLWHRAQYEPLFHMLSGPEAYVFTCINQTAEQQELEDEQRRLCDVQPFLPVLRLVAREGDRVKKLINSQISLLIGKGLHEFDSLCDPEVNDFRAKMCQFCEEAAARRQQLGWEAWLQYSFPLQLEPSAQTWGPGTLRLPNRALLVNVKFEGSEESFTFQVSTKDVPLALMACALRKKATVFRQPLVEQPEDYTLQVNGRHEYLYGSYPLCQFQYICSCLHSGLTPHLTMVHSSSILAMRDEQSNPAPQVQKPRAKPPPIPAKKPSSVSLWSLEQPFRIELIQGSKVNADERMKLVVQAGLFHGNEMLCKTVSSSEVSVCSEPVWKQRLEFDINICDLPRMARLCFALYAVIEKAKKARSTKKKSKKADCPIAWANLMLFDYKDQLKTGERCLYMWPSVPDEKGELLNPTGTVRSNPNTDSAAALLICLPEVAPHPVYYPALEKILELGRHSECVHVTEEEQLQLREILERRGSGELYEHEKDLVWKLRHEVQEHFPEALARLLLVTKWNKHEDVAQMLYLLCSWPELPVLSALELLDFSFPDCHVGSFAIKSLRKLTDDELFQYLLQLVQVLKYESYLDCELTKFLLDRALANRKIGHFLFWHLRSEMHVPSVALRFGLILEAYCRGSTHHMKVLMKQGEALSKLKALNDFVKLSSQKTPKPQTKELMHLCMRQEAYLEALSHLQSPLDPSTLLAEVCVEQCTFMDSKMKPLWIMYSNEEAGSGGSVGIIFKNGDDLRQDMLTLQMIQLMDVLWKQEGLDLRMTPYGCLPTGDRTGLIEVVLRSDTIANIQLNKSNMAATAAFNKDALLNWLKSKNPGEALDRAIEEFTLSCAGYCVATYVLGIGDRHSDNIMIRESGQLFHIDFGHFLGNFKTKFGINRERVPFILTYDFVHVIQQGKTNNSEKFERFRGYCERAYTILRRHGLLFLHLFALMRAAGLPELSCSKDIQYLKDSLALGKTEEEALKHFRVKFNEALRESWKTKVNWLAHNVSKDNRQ
As to the kind of experiment: Inhibition of PI3Kdelta expressed in Escherichia coli or baculovirus-infected insect cells using gamma-[33P]ATP at 400 uM by scintillation proximity assay.

In experiment [8] the target is Receptor-interacting serine/threonine-protein kinase 2 (Homo sapiens) (UniProt O43353). The experiment is described as follows: Inhibition of RIP2 expressed in Escherichia coli or baculovirus-infected insect cells at 400 uM by fluorescence polarization assay.
In experiment [9] the target is Phosphatidylinositol 4,5-bisphosphate 3-kinase catalytic subunit alpha isoform (Homo sapiens) (UniProt P42336). The experiment is described as follows: Inhibition of PI3Kalpha expressed in Escherichia coli or baculovirus-infected insect cells using gamma-[33P]ATP at 400 uM by scintillation proximity assay.
Experiment [10] deals with Phosphatidylinositol 4,5-bisphosphate 3-kinase catalytic subunit gamma isoform (Homo sapiens) (UniProt P48736). The experiment is described as follows: Inhibition of PI3Kgamma expressed in Escherichia coli or baculovirus-infected insect cells at 667 uM by fluorescence polarization assay.
For experiment [11], the target named is Serine/threonine-protein kinase B-raf (Homo sapiens) (UniProt P15056). As to the kind of experiment: Inhibition of B-Raf expressed in Escherichia coli or baculovirus-infected insect cells using ATP as substrate at 400 uM by fluorescence polarization assay.
The target of experiment [12] is Serine/threonine-protein kinase PAK 1 (Homo sapiens) (UniProt Q13153). The experiment is described as follows: Inhibition of PAK1 expressed in Escherichia coli or baculovirus-infected insect cells at 400 uM by IMAP assay.

Chain of RAC-alpha serine/threonine-protein kinase (P31749 whole entry): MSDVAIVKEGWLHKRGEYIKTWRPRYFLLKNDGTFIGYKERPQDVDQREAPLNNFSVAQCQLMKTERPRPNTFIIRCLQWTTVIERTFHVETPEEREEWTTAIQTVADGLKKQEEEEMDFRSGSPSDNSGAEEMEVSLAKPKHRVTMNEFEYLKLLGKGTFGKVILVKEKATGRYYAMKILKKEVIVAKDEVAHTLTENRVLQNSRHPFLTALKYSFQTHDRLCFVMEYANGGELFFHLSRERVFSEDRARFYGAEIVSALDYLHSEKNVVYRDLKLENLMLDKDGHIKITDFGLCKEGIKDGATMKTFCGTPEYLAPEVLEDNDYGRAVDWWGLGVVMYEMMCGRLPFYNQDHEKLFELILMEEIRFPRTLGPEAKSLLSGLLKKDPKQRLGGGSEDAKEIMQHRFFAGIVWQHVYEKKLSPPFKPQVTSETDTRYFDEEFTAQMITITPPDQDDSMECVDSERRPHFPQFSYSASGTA
Chain of Aurora kinase B (Homo sapiens) (Q96GD4 whole entry): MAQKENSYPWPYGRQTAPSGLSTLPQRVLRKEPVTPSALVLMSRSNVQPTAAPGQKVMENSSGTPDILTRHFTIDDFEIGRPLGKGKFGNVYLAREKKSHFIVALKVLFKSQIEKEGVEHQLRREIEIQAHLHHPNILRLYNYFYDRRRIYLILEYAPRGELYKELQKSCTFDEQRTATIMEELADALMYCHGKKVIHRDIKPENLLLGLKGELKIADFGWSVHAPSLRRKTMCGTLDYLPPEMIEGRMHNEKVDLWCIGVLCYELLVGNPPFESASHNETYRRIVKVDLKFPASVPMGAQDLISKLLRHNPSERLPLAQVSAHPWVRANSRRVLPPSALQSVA
Chain of Receptor-interacting serine/threonine-protein kinase 2 (Homo sapiens) (O43353 whole entry, canonical isoform): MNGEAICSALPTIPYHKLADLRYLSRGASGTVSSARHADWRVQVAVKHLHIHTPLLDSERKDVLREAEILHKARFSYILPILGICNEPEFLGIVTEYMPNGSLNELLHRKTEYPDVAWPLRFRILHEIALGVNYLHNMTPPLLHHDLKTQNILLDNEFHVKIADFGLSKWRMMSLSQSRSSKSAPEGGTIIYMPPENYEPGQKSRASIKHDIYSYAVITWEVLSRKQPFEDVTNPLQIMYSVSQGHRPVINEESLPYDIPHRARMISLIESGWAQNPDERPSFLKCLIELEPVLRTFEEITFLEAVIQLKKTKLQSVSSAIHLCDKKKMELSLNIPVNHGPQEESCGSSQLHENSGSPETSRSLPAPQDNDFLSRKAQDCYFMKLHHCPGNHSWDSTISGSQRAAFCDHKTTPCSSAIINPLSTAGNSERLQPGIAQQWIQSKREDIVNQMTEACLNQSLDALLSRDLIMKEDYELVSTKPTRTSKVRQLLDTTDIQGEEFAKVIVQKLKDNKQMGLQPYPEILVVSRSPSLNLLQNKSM
Chain of Receptor tyrosine-protein kinase erbB-2 (Homo sapiens) (P04626 whole entry): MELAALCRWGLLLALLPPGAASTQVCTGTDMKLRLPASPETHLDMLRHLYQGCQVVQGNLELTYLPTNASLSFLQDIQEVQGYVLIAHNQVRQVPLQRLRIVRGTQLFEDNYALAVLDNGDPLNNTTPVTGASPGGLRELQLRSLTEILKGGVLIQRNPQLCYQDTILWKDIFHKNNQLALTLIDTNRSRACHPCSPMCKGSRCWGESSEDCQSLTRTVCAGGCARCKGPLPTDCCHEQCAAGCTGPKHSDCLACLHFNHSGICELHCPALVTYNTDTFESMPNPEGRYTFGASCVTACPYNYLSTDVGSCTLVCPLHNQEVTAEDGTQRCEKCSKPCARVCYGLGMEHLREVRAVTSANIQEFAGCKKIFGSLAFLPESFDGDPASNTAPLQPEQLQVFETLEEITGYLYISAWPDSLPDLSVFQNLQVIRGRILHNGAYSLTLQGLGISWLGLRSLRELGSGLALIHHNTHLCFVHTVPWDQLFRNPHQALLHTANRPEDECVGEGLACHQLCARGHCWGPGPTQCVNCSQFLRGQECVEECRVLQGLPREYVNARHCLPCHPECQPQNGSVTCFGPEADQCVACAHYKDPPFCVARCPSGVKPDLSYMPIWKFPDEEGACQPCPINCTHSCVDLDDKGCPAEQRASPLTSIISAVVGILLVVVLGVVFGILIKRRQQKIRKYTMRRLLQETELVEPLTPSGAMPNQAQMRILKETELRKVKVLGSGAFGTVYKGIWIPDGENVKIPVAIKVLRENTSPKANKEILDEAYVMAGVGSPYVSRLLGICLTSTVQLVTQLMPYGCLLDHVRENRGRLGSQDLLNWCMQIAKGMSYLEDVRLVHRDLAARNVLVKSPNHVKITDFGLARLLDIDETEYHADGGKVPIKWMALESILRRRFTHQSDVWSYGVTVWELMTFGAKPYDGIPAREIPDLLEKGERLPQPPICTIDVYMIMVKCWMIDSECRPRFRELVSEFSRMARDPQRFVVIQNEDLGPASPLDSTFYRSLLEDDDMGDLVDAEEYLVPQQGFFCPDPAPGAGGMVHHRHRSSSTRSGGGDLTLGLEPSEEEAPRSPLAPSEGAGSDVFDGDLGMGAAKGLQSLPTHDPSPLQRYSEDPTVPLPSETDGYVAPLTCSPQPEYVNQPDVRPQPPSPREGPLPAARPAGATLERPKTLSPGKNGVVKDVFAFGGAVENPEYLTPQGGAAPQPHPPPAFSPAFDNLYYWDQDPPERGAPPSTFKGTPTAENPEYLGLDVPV
Chain of Epidermal growth factor receptor (Homo sapiens) (P00533 whole entry): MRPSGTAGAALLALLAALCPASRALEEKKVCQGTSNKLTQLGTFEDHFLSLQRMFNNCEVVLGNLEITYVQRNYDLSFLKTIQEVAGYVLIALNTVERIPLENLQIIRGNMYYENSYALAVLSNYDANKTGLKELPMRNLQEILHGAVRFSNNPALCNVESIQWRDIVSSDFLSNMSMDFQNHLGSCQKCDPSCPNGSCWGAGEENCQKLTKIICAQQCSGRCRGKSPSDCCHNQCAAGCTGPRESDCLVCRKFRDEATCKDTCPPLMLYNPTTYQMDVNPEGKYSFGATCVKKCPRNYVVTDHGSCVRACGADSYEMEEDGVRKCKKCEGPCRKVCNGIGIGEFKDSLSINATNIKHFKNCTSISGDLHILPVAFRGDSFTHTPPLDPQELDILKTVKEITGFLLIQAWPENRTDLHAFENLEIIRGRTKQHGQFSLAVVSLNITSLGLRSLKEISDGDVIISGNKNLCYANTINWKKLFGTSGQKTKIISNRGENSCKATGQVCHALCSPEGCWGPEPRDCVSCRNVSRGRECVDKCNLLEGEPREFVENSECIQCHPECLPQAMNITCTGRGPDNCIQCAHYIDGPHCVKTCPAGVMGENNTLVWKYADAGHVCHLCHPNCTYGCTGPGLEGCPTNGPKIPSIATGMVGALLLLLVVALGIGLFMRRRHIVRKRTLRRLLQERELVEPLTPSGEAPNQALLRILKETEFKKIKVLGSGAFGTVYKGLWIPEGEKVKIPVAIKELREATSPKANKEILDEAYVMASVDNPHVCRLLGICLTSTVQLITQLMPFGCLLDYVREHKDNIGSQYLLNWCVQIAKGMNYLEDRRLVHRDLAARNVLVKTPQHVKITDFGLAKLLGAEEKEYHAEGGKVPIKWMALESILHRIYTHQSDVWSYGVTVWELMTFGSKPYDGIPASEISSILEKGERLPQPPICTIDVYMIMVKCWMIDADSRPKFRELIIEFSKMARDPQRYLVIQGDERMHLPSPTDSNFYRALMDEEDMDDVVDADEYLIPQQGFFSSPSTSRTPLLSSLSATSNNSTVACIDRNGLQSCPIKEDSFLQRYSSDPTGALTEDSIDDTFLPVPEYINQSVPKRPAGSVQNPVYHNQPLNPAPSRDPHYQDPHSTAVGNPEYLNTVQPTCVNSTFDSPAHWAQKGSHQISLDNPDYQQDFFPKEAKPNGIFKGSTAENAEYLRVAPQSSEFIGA
Chain of Phosphatidylinositol 4,5-bisphosphate 3-kinase catalytic subunit gamma isoform (Homo sapiens) (P48736 whole entry, looked up, canonical isoform): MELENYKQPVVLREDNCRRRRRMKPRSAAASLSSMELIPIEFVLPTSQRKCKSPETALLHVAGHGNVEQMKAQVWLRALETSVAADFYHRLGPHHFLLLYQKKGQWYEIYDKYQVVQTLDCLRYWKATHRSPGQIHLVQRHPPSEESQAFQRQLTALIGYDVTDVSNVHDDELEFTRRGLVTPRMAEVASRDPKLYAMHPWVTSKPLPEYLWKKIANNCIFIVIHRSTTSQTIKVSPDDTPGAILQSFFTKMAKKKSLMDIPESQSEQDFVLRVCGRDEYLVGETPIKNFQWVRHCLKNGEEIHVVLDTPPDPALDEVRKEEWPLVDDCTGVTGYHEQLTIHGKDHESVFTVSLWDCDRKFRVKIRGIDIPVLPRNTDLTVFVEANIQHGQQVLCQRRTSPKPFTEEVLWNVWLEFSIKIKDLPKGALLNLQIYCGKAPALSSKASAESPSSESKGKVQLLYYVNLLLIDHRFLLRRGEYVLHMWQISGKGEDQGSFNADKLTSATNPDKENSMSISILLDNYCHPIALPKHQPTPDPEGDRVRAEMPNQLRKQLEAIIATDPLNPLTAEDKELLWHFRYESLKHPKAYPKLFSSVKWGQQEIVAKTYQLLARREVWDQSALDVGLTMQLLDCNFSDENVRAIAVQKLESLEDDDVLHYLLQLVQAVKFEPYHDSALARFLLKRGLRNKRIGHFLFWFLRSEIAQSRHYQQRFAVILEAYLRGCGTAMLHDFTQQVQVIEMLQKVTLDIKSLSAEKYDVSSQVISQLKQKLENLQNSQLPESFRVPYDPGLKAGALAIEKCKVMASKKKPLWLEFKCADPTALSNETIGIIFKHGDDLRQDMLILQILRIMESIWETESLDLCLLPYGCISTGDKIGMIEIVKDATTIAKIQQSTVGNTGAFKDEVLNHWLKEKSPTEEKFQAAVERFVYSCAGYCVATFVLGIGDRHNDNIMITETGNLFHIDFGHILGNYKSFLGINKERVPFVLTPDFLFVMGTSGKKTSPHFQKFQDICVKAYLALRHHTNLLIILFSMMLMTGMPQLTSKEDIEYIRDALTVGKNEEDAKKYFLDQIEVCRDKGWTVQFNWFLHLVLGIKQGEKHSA

As for `c1cnc2[nH]ccc2c1`, the inhibition in experiment [1] amounted to 94%; in experiment [2] it was 36%; in experiment [3], 0%; in experiment [5], 0%; in experiment [6], 15%; in experiment [7] it was 22%. Also, the inhibition in [8] came out at 5%; in [9], 16%; in experiment [10] it was 20%; in experiment [11], 19%. Moreover, the IC50 is over 400 µM in experiment [4] (read-out: IC50) and over 398 µM in [4] (read-out: pIC50 (converted)).
Take `c1ccc2[nH]ncc2c1` [INDAZOLE]: the inhibition in experiment [1] is 81%; in experiment [12] it was 12%; in experiment [2], 37%; in experiment [3] it was 0%; in [5], 0%; in experiment [6] it was 13%. Also, the inhibition is 10% in experiment [7]; 0% in [8]; 6% in [9]; 0% in experiment [10]; 0% in experiment [11]. The figures for the IC50 in experiment [4] (read-out: IC50) and in [4] (read-out: pIC50 (converted)) were over 400 µM and over 398 µM, respectively.
